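Dose response: 5 concentrations. Exposure: 48 h. Format: 96-well plates. Endpoint: linear interpolation; highest concentration if not reached. Here, GI50 denotes the concentration required for 50% inhibition of growth.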 Activity calls are given as the source filed them. Cut-off read from the data, not from the text of the source: active = GI50 up to about 1.1 µM and inactive = higher.

Holding throughout (assay): NCI-60 cell line screen, 48 h
For assay [1], the system named is HT-29.
In assay [2] the test system is Hs-578T.
The test system of assay [3] is BT-549.
Assay [4] concerns SK-MEL-28.
Assay [5] concerns IGROV-1.
Assay [6] relates to SNB-19.
For assay [7], the system named is SK-MEL-2.
Assay [8] concerns HCT-116.
For assay [9], the system named is NCI-H23.
Assay [10] has as its system U-251.
Assay [11] has as its system PC-3.
For assay [12], the system named is UO-31.
Assay [13] relates to NCI/ADR-RES.
In assay [14] the test system is HCC 2998.
For assay [15], the system named is ACHN.
For assay [16], the system named is MCF7.
Assay [17] concerns UACC-62.
Assay [18] has as its system OVCAR-8.
For assay [19], the system named is SN12C.
Assay [20] concerns SR.

Take `Cc1cc(-c2ccc(C(=O)O)[nH]2)on1`: the GI50 is 27.1 µM (inactive) in [1]; 49.2 µM (inactive) in assay [2]; > 100 µM (inactive) in assay [3]; > 100 µM (inactive) in assay [4]; 50.4 µM (inactive) in [5]; 61.4 µM (inactive) in assay [6]. Moreover, the GI50 in assay [7] was 88.5 µM (inactive); in assay [8], 29.2 µM (inactive); in [9] it was 69 µM (inactive); in [10] it was 65.6 µM (inactive); in [11], 68.5 µM (inactive); in assay [12] it was 55.6 µM (inactive). Also, the GI50 was 24.9 µM (inactive) in assay [13]; 55 µM (inactive) in assay [14]; > 100 µM (inactive) in assay [15]; 39 µM (inactive) in assay [16]; 48 µM (inactive) in [17]; 61.4 µM (inactive) in [18].

Regarding `CC(NC(=O)NC(C)(C)C)NC(=O)C(N)CC(=O)O` (stereo not drawn), the GI50 in [1], in assay [2], in assay [3], in assay [4], in assay [5] and in [6] was > 100 µM (inactive) each time. For the same compound, the GI50 in assay [7], in [8], in [9], in assay [10], in assay [11] and in assay [12] was > 100 µM (inactive) each time. In addition, the GI50 in assay [13] is > 100 µM (inactive); in assay [14], > 10 µM (inactive); in [15], > 100 µM (inactive); in assay [19], > 100 µM (inactive); in assay [16], > 100 µM (inactive); in [17] it was 14.4 µM (inactive). Also, the GI50 in assay [18] was > 100 µM (inactive).

With `Cc1ccc(C(=O)CC(Cl)=C(Cl)Cl)cc1`, the GI50 in [1], in assay [2], in assay [3], in assay [4], in assay [5] and in assay [6] was > 100 µM (inactive) in each case. Moreover, the GI50 in [20] was 25.7 µM (inactive); in [7], > 100 µM (inactive); in assay [8], 61.9 µM (inactive); in [9] it was > 100 µM (inactive); in [10] it was > 100 µM (inactive); in assay [11] it was > 100 µM (inactive). Moreover, the GI50 in [12], in [13], in [15], in assay [16], in assay [17] and in assay [18] was > 100 µM (inactive) in each case.

Consider `CC1=NOC(C)(O)/C1=N/O` (stereo not drawn), for which the GI50 in assay [1], in [2], in assay [3], in assay [4], in assay [5] and in assay [6] was > 100 µM (inactive) each time. Further, the GI50 in [7], in assay [8], in assay [9], in [10], in assay [11] and in assay [12] was > 100 µM (inactive) each time. Further, the GI50 in assay [13], in assay [14], in [15], in assay [19], in [16] and in [17] was > 100 µM (inactive) each time. The GI50 in assay [18] was > 100 µM (inactive).

With `NC(CCCCP(=O)(O)O)C(=O)O` (stereo not drawn), the GI50 in assay [1], in assay [2], in assay [3], in assay [4], in assay [5] and in assay [6] was > 100 µM (inactive) throughout. The GI50 in assay [20], in assay [7], in assay [8], in assay [9], in assay [10] and in [11] was > 100 µM (inactive) each time. Moreover, the GI50 in assay [12], in assay [13], in assay [14], in assay [15], in [19] and in [17] was > 100 µM (inactive) throughout. For the same compound, the GI50 in assay [18] is > 100 µM (inactive).

As for `COc1ccc2[nH]c3c(C)c4cc[n+](C)cc4c(C)c3c2c1`, the GI50 in assay [1] was 4.83 µM (inactive); in assay [2] it was 0.199 µM (active); in [3] it was 1.87 µM (inactive); in assay [4], 2.18 µM (inactive); in [5], 2.19 µM (inactive); in assay [6], 0.273 µM (active). In addition, the GI50 in assay [7] is 3.85 µM (inactive); in [8], 2 µM (inactive); in [9] it was 0.649 µM (active); in [10], 0.191 µM (active); in [11], 3.54 µM (inactive); in [12], 21.7 µM (inactive). For the same compound, the GI50 in [13] was 22 µM (inactive); in assay [14], 3.15 µM (inactive); in assay [15], 14 µM (inactive); in assay [19], 0.116 µM (active); in assay [16] it was 2.39 µM (inactive); in [17], 3.48 µM (inactive). In [18], the GI50 is 0.305 µM (active).

For `C=C(C)C(=O)O[C@@H]1C/C(C)=C\[C@H](OC(C)=O)C[C@](C)(O)/C=C2/OC(=O)C(COC(C)=O)=C21`, the GI50 in assay [1] is 0.237 µM (active); in assay [2] it was 2.15 µM (inactive); in assay [3], 1.37 µM (inactive); in assay [4], 0.251 µM (active); in [5], 0.834 µM (active); in assay [6], 12.3 µM (inactive). In addition, the GI50 is 0.0423 µM (active) in assay [20]; 2.87 µM (inactive) in [7]; 0.394 µM (active) in assay [8]; 1.77 µM (inactive) in assay [9]; 1.09 µM (active) in assay [10]; 1.61 µM (inactive) in [11]. Also, the GI50 was 1.63 µM (inactive) in assay [12]; 0.399 µM (active) in [14]; 0.556 µM (active) in [15]; 0.783 µM (active) in assay [19]; 1.05 µM (active) in assay [16]; 0.692 µM (active) in [17]. The GI50 in assay [18] was 0.69 µM (active).

Turning to `O=C(Nc1nc(C23CC4CC(CC(C4)C2)C3)cs1)c1cc2ccc(O)cc2oc1=O`, the GI50 in assay [1] was 14.4 µM (inactive); in [2] it was 14.5 µM (inactive); in assay [3] it was > 10 µM (inactive); in [4] it was 15.1 µM (inactive); in assay [5], 7.41 µM (inactive); in [6], 18.4 µM (inactive). For the same compound, the GI50 was 10.1 µM (inactive) in [8]; 11.7 µM (inactive) in [9]; 12.8 µM (inactive) in assay [10]; 13.5 µM (inactive) in [11]; 7.36 µM (inactive) in assay [12]; 11.1 µM (inactive) in assay [13]. Further, the GI50 in [14] is 10.6 µM (inactive); in assay [15], 10.6 µM (inactive); in assay [19] it was 11.2 µM (inactive); in [16], 14.1 µM (inactive); in assay [18], 6.67 µM (inactive).

In the case of `CCOC(=O)CCC(C(=O)OCC)n1nnc2ccc(Nc3c(C)[n+]([O-])c4cc(F)c(OCC)cc4[n+]3[O-])cc21` (stereo not drawn), the GI50 was 56.8 µM (inactive) in assay [1]; > 100 µM (inactive) in assay [2]; 96.2 µM (inactive) in assay [3]; 48.1 µM (inactive) in assay [5]; > 100 µM (inactive) in [6]; 36.5 µM (inactive) in [20]. In addition, the GI50 in assay [7] was 32.3 µM (inactive); in assay [8], 64.3 µM (inactive); in [9], 73.3 µM (inactive); in [10], 63.8 µM (inactive); in [11] it was > 100 µM (inactive); in assay [12] it was 54 µM (inactive). The GI50 is 87.7 µM (inactive) in assay [13]; 51.8 µM (inactive) in assay [15]; 45.4 µM (inactive) in [19]; 22.5 µM (inactive) in assay [16]; 20.1 µM (inactive) in assay [17]; 94.4 µM (inactive) in assay [18].

Take `CC(=O)OC(CCC1(C)OC1COc1ccc(CCNC(=O)C=C(C)C)cc1)C(C)(C)OC(C)=O` (stereo not drawn): the GI50 in [1] is 46 µM (inactive); in [2], 59.3 µM (inactive); in assay [3] it was 0.377 µM (active); in assay [4], 28.2 µM (inactive); in [5], 29.1 µM (inactive); in assay [6] it was > 100 µM (inactive). Besides, the GI50 in [20] was 24.9 µM (inactive); in [7], > 51.9 µM (inactive); in assay [8], 0.611 µM (active); in assay [9], 0.647 µM (active); in assay [10], > 100 µM (inactive); in assay [11] it was 29.9 µM (inactive). Further, the GI50 was 48.9 µM (inactive) in assay [12]; 10.6 µM (inactive) in [13]; > 100 µM (inactive) in assay [14]; 3.61 µM (inactive) in assay [15]; > 100 µM (inactive) in [19]; 18.4 µM (inactive) in assay [17]. For the same compound, the GI50 in [18] was 22.9 µM (inactive).

For `O=C1CSSCC(=O)Nc2ccccc2N1`, the GI50 in assay [1], in assay [2], in [3], in assay [4], in assay [5] and in assay [6] was > 100 µM (inactive) throughout. Also, the GI50 in assay [20], in assay [7], in [8], in [9], in [10] and in assay [11] was > 100 µM (inactive) in each case. The GI50 in [12], in assay [13], in [15], in assay [19], in [17] and in [18] was > 100 µM (inactive) in each case.

Source of the values: ChEMBL document CHEMBL1201862, “PubChem BioAssay data set” (2004).
